Laboratory results as given in the supplement of paper PMC10702517.
± gives the standard deviation.

Legend:
[1] = chemical recovery into PDMS from spiked human plasma; higher = better extraction; conditions: pooled human plasma, extraction method: PES with PDMS
[2] = chemical recovery from spiked human plasma; higher = better extraction; conditions: pooled human plasma
[3] = chemical recovery by SPE of plasma after PDMS sampling; higher = better extraction; conditions: pooled human plasma, extraction method: HLB SPE of plasma after PES
[4] = extraction method: SPE only (HLB 96-well), PES comparison experiment
[5] = extraction method: PES+SPE (3 d PDMS equilibration then HLB SPE)
[6] = extraction method: SPE only (HLB 96-well)
[7] = extraction method: solvent precipitation (ACN + hexane)
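Wherever chemical recovery by SPE of plasma after PDMS sampling is given: over 400 spiked chemicals quantified by LC-HRMS or GC-HRMS via internal standard calibration, recovery relative to spike mix added to unspiked plasma extract to correct matrix effects.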

| SMILES | chemical recovery into PDMS ([1]; equilibration time (d): 1) [%] | chemical recovery into PDMS ([1]; equilibration time (d): 3) [%] | chemical recovery [2, 4] [%] | chemical recovery by SPE of plasma ([3]; equilibration time (d): 3) [%] | chemical recovery into PDMS ([1]; equilibration time (d): 6) [%] | chemical recovery by SPE of plasma ([3]; equilibration time (d): 1) [%] | chemical recovery by SPE of plasma ([3]; equilibration time (d): 6) [%] | chemical recovery [2, 5] [%] | chemical recovery [2, 6] [%] | chemical recovery [2, 7] [%] |
| --- | --- | --- | --- | --- | --- | --- | --- | --- | --- | --- |
| c1ccc2c(c1)-c1cccc3cccc-2c13 [Fluoranthene] | – | 106 ± 24 | – | – | – | – | 3.75 ± 6.5 | 79.1 ± 25 | 6.27 ± 1.4 | 69 ± 3.7 |
| CNC1=C(c2cccc(C(F)(F)F)c2)C(=O)C(c2ccccc2)O1 (stereo not given) [Flurtamone] | 1.85 ± 0.36 | 4.2 ± 2 | 49.3 ± 7.7 | 11 ± 1.4 | 5.43 ± 2.8 | 15.5 ± 2.1 | 6.82 ± 0.47 | 32.8 ± 7.2 | 51.2 ± 0.52 | 80.8 ± 2.4 |
| C[Si](Cn1cncn1)(c1ccc(F)cc1)c1ccc(F)cc1 [Flusilazole] | 41.3 ± 2.2 | 45.7 ± 3.8 | 48 ± 7.1 | 0.383 ± 0.15 | 43.1 ± 5.8 | 0.32 ± 0.12 | 0.136 ± 0.0093 | 45.1 ± 4.8 | 39.4 ± 2.9 | 70.1 ± 5.4 |
| O=C1CC2(CCCCC2)CN1 [Gabapentin-Lactam] | 22.3 ± 0.47 | 28.5 ± 1.6 | 48.4 ± 5.6 | 15.6 ± 1.9 | 31.2 ± 1.6 | 19.4 ± 2.5 | 9.93 ± 1.6 | 44.2 ± 6.2 | 49.4 ± 1.6 | 71.2 ± 2.9 |
| C#C[C@]1(O)C=C[C@H]2[C@@H]3CCC4=CC(=O)CC[C@@H]4[C@H]3CC[C@@]21CC [Gestoden] | 34.1 ± 1.7 | 43 ± 2.3 | 47 ± 7.4 | 17.6 ± 1 | 40.9 ± 4.1 | 22.4 ± 3 | 11.7 ± 1.3 | – | – | – |
| CN(C)c1nc(=O)n(C2CCCCC2)c(=O)n1C [Hexazinone] | 36.1 ± 1.9 | 42.2 ± 4.5 | 48.5 ± 4.3 | – | 44.5 ± 2.9 | 38.9 ± 6.6 | 22.5 ± 4.4 | 51.5 ± 4.8 | 45.4 ± 3.4 | – |
| O=P1(NCCCl)OCCCN1CCCl (stereo not given) [Ifosfamide] | 3.64 ± 0.32 | 6.16 ± 1.5 | 55.9 ± 6.7 | 56.1 ± 4.8 | 6.9 ± 1.5 | 54.9 ± 6.7 | 47.3 ± 4.7 | 46.6 ± 3.5 | 39.4 ± 3.3 | 71.7 ± 1.5 |
| CC(C)C1(C)N=C(c2ncccc2C(=O)O)NC1=O (stereo not given) [Imazapyr] | – | – | 52.5 ± 4 | 53.1 ± 3.2 | 0.0849 ± 0.048 | 49.5 ± 5.4 | 49.2 ± 2.4 | 44.4 ± 2.9 | 44.7 ± 9.6 | 67.7 ± 5.8 |
| O=C1NCCN1Cc1ccc(Cl)nc1 [Imidacloprid-urea] | 6.18 ± 0.38 | 10.2 ± 1.7 | 51.1 ± 4.4 | 50.2 ± 4.6 | 11.7 ± 2 | 50.1 ± 6.5 | 39.3 ± 1.7 | 51.2 ± 4.7 | 43.2 ± 9.1 | 77.1 ± 3.8 |
| O=[N+]([O-])/N=C1\NCCN1Cc1ccc(Cl)nc1 [Imidacloprid] | 3.82 ± 0.41 | 6.8 ± 1.8 | 53.3 ± 7.2 | 50.2 ± 4.6 | 7.69 ± 1.4 | 49 ± 6.3 | 43.2 ± 2.7 | 47.6 ± 4 | 39.9 ± 8 | 77.5 ± 3.8 |
| CC(C)c1ccc(NC(=O)N(C)C)cc1 [Isoproturon] | 37.1 ± 2.3 | 40.1 ± 2.3 | 53.4 ± 6.7 | 5.5 ± 0.88 | 40.4 ± 0.94 | 5.76 ± 0.47 | 3.08 ± 0.39 | 46.2 ± 4.8 | 43.1 ± 2.7 | 74.8 ± 3.5 |
| O=C1Nc2ccc(Cl)cc2C(c2ccccc2Cl)=NC1O (stereo not given) [Lorazepam] | 4.25 ± 0.37 | 8.29 ± 1.1 | 45.6 ± 7 | 38.9 ± 3 | 9.18 ± 1.4 | 38.9 ± 5.5 | 31.1 ± 1.8 | 36.5 ± 2.4 | 30.9 ± 2.8 | 72.1 ± 3.6 |

Continued, in another order:

| chemical recovery into PDMS ([1]; equilibration time (d): 1) [%] | chemical recovery into PDMS ([1]; equilibration time (d): 3) [%] | chemical recovery [2, 4] [%] | chemical recovery by SPE of plasma ([3]; equilibration time (d): 3) [%] | SMILES | chemical recovery into PDMS ([1]; equilibration time (d): 6) [%] | chemical recovery by SPE of plasma ([3]; equilibration time (d): 1) [%] | chemical recovery by SPE of plasma ([3]; equilibration time (d): 6) [%] | chemical recovery [2, 5] [%] | chemical recovery [2, 6] [%] | chemical recovery [2, 7] [%] |
| --- | --- | --- | --- | --- | --- | --- | --- | --- | --- | --- |
| 5.95 ± 0.6 | 10.2 ± 1.6 | 46.9 ± 5.2 | 37.1 ± 2.1 | CC1(C)O[C@@H]2C[C@H]3[C@@H]4C[C@H](F)C5=CC(=O)C=C[C@]5(C)[C@H]4[C@@H](O)C[C@]3(C)[C@]2(C(=O)CO)O1 [Flunisolide] | 11.7 ± 2 | 39.7 ± 3.9 | 27.6 ± 2.4 | – | – | – |
| 1.66 ± 0.4 | 3.75 ± 0.69 | 50.4 ± 7.2 | 48.3 ± 3.2 | CC(=O)[C@@]1(O)CC[C@H]2[C@@H]3C[C@H](C)C4=CC(=O)C=C[C@]4(C)[C@@]3(F)[C@@H](O)C[C@@]21C [Fluorometholone] | 4.15 ± 0.95 | 45.1 ± 3.6 | 40.3 ± 1.6 | – | – | – |
| 32.4 ± 1.4 | 36.2 ± 3.1 | 67.8 ± 5.2 | 22.2 ± 0.83 | CC(C)C(=O)Nc1ccc([N+](=O)[O-])c(C(F)(F)F)c1 [Flutamide] | 36.7 ± 1.6 | 21.7 ± 2.7 | 15.5 ± 1.1 | – | – | – |
| 32.3 ± 3 | 39.3 ± 3.7 | 41.1 ± 5.8 | 4.78 ± 8.3 | CCC(=O)O[C@]1(C(=O)SCF)[C@H](C)C[C@H]2[C@@H]3C[C@H](F)C4=CC(=O)C=C[C@]4(C)[C@@]3(F)[C@@H](O)C[C@@]21C [Fluticasone propionate] | 41.3 ± 2.3 | – | – | – | – | – |
| 2.41 ± 0.97 | 1.09 ± 0.96 | 41.8 ± 7.1 | 1.56 ± 0.35 | COCCCC/C(=N\OCCN)c1ccc(C(F)(F)F)cc1 [Fluvoxamine] | 2.83 ± 1.3 | 1.45 ± 0.092 | 0.901 ± 0.06 | 4.62 ± 1.6 | 51 ± 0.52 | – |
| 39.4 ± 2.9 | 45.8 ± 2.6 | 7.63 ± 2.7 | 3.37 ± 3 | COCN(COC)c1nc(N(COC)COC)nc(N(COC)COC)n1 [Hexa(methoxymethyl)melamine] | 41.9 ± 5.7 | 7.64 ± 6.8 | 0.745 ± 1 | 38.3 ± 8.8 | – | 72.5 ± 2.8 |
| 27.3 ± 1.6 | 31.3 ± 3.8 | 43.2 ± 8.4 | 2.67 ± 0.36 | CCC(C)OC(=O)N1CCCCC1CCO (stereo not given) [Icaridin] | 35.5 ± 13 | 2.46 ± 0.24 | 1.58 ± 0.1 | – | 45 ± 5.5 | – |
| 20 ± 0.37 | 20.6 ± 1 | 47.6 ± 5.3 | 0.334 ± 0.2 | C=CCOC(Cn1ccnc1)c1ccc(Cl)cc1Cl (stereo not given) [Imazalil] | 20.7 ± 1.6 | 0.376 ± 0.081 | 0.104 ± 0.0059 | 21.3 ± 3.4 | 42.1 ± 3 | 75 ± 4.8 |
| 2.55 ± 1.2 | 2.02 ± 2.1 | 28.4 ± 4.4 | 4 ± 1.1 | C1=Cc2ccccc2Nc2ccccc21 [Iminostilbene] | 1.36 ± 0.63 | 3.69 ± 2.4 | 2.5 ± 1.3 | 10.8 ± 4.1 | 44.1 ± 7 | 73.2 ± 4.5 |
| 19.6 ± 7 | 19.3 ± 6.5 | 44.2 ± 6.4 | 0.842 ± 0.15 | CSc1nc(NC2CC2)nc(NC(C)(C)C)n1 [Irgarol] | 20.9 ± 3.9 | 0.863 ± 0.085 | 0.421 ± 0.023 | – | 55.7 ± 4 | 81.5 ± 4.4 |
| 0.00705 ± 0.025 | 0.0508 ± 0.069 | 4.27 ± 3.6 | – | CC1(C)CC(N)CC(C)(CN)C1 (stereo not given) [Isophorone diamine] | – | – | 1.22 ± 0.75 | – | – | – |
| 16.8 ± 3 | 24.3 ± 2.5 | 51.6 ± 7.8 | 18.5 ± 3.1 | CCCCCCCCCCCC(=O)N(CCO)CCO [Lauryl diethanolamide] | 26.3 ± 2.7 | 24.9 ± 2.9 | 13.2 ± 2.9 | – | – | – |
